The source of these data is ChEMBL document CHEMBL1153162, “Total synthesis and biological evaluation of methylgerambullone” (2010).

Holding throughout (settings): Cavia porcellus
Test [1] concerns Ileum. Kind of test: […] activity in longitudinal smooth muscle of guinea pig ileum assessed as inhibition of acetylcholine-induced contraction at 30 mg/L. Format: functional.
In test [2] the test system is Ileum. Description: […] activity in longitudinal smooth muscle of guinea pig ileum assessed as inhibition of acetylcholine-induced contraction at 60 mg/L. Format: functional.
Test [3] deals with Ileum. Description: […] activity in longitudinal smooth muscle of guinea pig ileum assessed as inhibition of acetylcholine-induced contraction at 100 mg/L. Format: functional.
Test [4] concerns Ileum. Kind of test: […] activity in longitudinal smooth muscle of guinea pig ileum assessed as inhibition of acetylcholine-induced contraction. Type of test: functional, tissue-based.

`CC(C)=CC(=O)C/C(C)=C/COc1ccc(CCN(C)C(=O)/C=C/S(C)(=O)=O)cc1` [METHYLGERAMBULLONE]: the inhibition at 30 µg/mL in the test with Ileum [1] is 45.3%. In addition, the inhibition at 60 µg/mL with Ileum [2] turned out to be 70%. In addition, in the test on Ileum [3], the inhibition at 100 µg/mL was found to be 78.7%. The Activity entry in the test with Ileum [4] was “Dose-dependent effect”.

A word on the inhibition: it is the percentage by which the read-out fell short of the control.
